Values of other authors in patent US7151091B2, “Compositions and methods for preventing infection” (The Johns Hopkins University, priority 2002, dated 2006).

Assays:
[1] = concentrations ranging from 5–100 mM
[2] = test system: human immunodeficiency virus (HIV); conditions: given to HIV-infected pregnant women before and during childbirth and to their infants after childbirth

Compound	removal of membrane cholesterol [1]	reduction of HIV transmission [2]
CC(O)COC[C@H]1O[C@@H]2O[C@H]3[C@H](O)[C@@H](O)[C@@H](O[C@H]4[C@H](O)[C@@H](O)[C@@H](O[C@H]5[C@H](O)[C@@H](O)[C@@H](O[C@H]6[C@H](O)[C@@H](O)[C@@H](O[C@H]7[C@H](O)[C@@H](O)[C@@H](O[C@H]8[C@H](O)[C@@H](O)[C@@H](O[C@H]1[C@H](O)[C@H]2O)O[C@@H]8COCC(C)O)O[C@@H]7COCC(C)O)O[C@@H]6COCC(C)O)O[C@@H]5COCC(C)O)O[C@@H]4COCC(C)O)O[C@@H]3COCC(C)O (stereo partly drawn) [2-OH-propyl-beta-cyclodextrin]	removes membrane cholesterol within minutes	–
Cc1cn([C@H]2C[C@H](N=[N+]=[N-])[C@@H](CO)O2)c(=O)[nH]c1=O [zidovudine]	–	two-thirds
